According to patent US20230416299A1, “COMPOUND AND METHOD FOR THE TREATMENT AND DIAGNOSIS OF NEURODEGENERATIVE CONDITIONS” (Swansea University, priority 2013, published 2023):
Blank lines part the entries; values can stand above or below the compound they belong to.

Key:
[1] = target: T1, Lxrα (Homo sapiens, UniProt Q13133); assay: Lxr-responsive luciferase reporter assay (Lxre + Lxrα) in SN4741 neural cells; format: cell-based, mouse; settings: for Lxrα activation, luciferase activity: 10 μM, 24 h
T1 construct: expressed in transfected cells; host or cells: SN4741 mouse neuronal cell line
T1 sequence (Q13133 1-447): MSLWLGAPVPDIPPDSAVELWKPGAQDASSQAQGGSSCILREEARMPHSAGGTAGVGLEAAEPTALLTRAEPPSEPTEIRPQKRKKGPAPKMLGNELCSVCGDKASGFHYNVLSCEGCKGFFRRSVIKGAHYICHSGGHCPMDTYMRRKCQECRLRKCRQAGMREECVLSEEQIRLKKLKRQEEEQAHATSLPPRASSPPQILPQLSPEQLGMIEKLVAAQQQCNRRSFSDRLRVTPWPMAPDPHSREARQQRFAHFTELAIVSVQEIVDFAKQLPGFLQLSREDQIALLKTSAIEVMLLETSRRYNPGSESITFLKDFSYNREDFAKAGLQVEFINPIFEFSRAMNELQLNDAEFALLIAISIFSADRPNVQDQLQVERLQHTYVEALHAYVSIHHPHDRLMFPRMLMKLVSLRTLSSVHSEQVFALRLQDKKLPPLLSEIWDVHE
Description: (§1) Luciferase Reporter Assay.

[2] = target: T2, Lxrβ (Homo sapiens, UniProt P55055); assay: Lxr-responsive luciferase reporter assay (Lxre + Lxrβ) in SN4741 neural cells; format: cell-based, mouse; settings: SN4741 cells, 10 μM, 24 h
T2 construct: expressed in transfected cells; host or cells: SN4741 mouse neuronal cell line
T2 sequence (P55055 1-460): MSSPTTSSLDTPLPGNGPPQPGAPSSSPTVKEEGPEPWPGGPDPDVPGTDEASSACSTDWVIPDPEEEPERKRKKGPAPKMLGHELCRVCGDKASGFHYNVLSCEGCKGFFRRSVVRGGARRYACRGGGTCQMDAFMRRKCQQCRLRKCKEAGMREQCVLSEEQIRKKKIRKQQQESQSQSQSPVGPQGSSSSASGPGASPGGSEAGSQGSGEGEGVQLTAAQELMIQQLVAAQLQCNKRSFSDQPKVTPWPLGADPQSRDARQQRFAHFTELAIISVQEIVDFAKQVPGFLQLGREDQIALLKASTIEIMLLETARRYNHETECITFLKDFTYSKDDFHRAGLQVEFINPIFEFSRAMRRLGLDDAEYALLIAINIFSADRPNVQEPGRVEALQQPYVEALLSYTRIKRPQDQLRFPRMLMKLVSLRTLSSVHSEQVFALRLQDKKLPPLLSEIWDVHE
Description: as §1

[3] = test system: Islet-1:GFP transgenic zebrafish embryos; format: in vivo; settings: 10 μM
Method: Quantitative PCR. Total RNA was extracted from SN4741 cells and zebrafish treated with the compounds of interest using the RNeasy Mini Kit (Qiagen), 1 μg was treated with RQ1 RNase-free DNase (Promega) and reverse transcribed using Superscript II Reverse Transcriptase (Invitrogen) and random primers (Invitrogen) (RT+ reaction). Parallel reactions without reverse transcriptase enzyme were done as a control (RT− reaction), and Sybergreen real-time quantitative PCR assays were performed. Expression levels were obtained by normalization with the value of the housekeeping gene encoding actin obtained for every sample in parallel assays.
Zebrafish Strain and Mainrenance Zebrafish were raised on a 14/10 h day/night cycle and were kept at 28.5° C. Islet-1:GFP transgenic embryos were obtained via natural spawning and staged in hours or days post fertilization (hpf and dpf) according to Kimmel et al). Embryos older than 24 hpf were treated with 0.03% phenylthiourea (PTU) to inhibit pigmentation. MO injections were performed using splice site specific zebrafish 1xr MO. MO injected embryos were immediately dechorionated and transferred to a 96 well plate and exposed to dimethyl sulfoxide (DMSO) treated or ligand treated medium.
Compound Exposure. Islet-1:GFP embryos were collected by natural mating and immediately (at 1 cell stage) dechorionated and transferred to a 96 well plate. Each of the compounds tested were obtained as 10 mM stock and diluted in embryo medium to a final concentration of 10 μM, and 200 μL was added to each well. DMSO or propan-2-ol treated embryo medium was taken as control. Ligand solutions were replaced every 12 h with fresh ligand solution prepared in PTU treated embryo medium. Embryos were collected at 48 hpf, fixed for 4 h at room temperature with 4% paraformaldehyde and then washed and kept in PBST. Immunocytochemistry was performed using an anti-GFP antibody and fluorescence was viewed and photographed using a Zeiss Axioplan compound microscope and a Zeiss Axiocam digital camera.

[4] = test system: mouse E11.5 brain primary cultures; assay: Mouse E11.5 brain primary cultures (Islet1+, active caspase 3+, BrdU, Nkx6.1 counts); format: cell-based; settings: for Number of Islet1+ cells: wild type cultures, 3 DIV
Method: Primary Brain Cultures. Brains from E11.5 mice were manually dissected, plated on poly-D-lysine (150,000 cells/cm2) and grown in serum-free N2 media consisting of 1:1 mixture of F12 and DMEM with 10 ng/mL insulin, 100 μg/mL apo-transferrin, 100 μM putrescine, 20 nM progesterone, 30 nM selenium, 6 mg/mL glucose, and 1 mg/mL BSA. Cells were treated for 3 days in vitro (DIV) with the compounds of interest, fixed with 4% PFA and processed for staining using appropriate antibodies.
For BrdU analysis, cells were treated with BrdU one hour after plating and media was replaced with fresh medium after 16 h. After a further 2 days in culture, cells were treated for 30 min with 2N HCl and then immunocytochemistry was performed to evaluate the number of double BrdU+;Islet1+ cells (a measure of motor neuron neurogenesis). Hoechst staining was performed by permeabilizing cells with a 0.3% Triton-X 100/PBS solution for 5 min followed by incubation with Hoechst 33258 (Sigma) for 10 min.
Antibodies and Detection Procedures. Cells were fixed in 4% PFA, washed in PBS and blocked in 5% normal goat serum/PBS for 1 h at room temperature. Primary antibodies were diluted in PBS (pH 7.4), 0.3% Triton X-100, 1% BSA and incubations were carried out overnight at +4° C. or at room temperature for 2 h. The antibodies used were anti-: BrdU (1:400; Abeam), Islet-1 (1:100; Developmental Studies Hybridoma Bank), cleaved caspase-3 (Asp175) (1:100; Cell Signaling Technology), tyrosine hydroxylase (TH;1:1000; Pel-Freeze) GABA (1:1,000; Sigma), Brn3a (1:250; Millipore), Nkx6.1 (1:200; Novus Biologicals), choline acetyltransferase (ChAT; 1:500; Millipore) and appropriate secondary antibodies (Jackson ImmunoResearch or Alexa). Cells positive for the corresponding marker were counted directly at the microscope at a magnification of 20 x. Cells were counted in every well, in eight consecutive fields (going from one side of the well to the other, passing through the center), in three different wells per experiment and in three different experiments per condition. Random pictures of the wells were taken for every condition to document the result, and representative pictures were subsequently selected to represent the quantitative data. Photos were acquired with a Zeiss Axioplan microscope and a Hamamatsu camera C4742-95 using the Openlab software.

SMILES: CC(C)CCC[C@@H](C)[C@H]1CC[C@H]2[C@@H]3[C@@H](O)C=C4C[C@@H](O)CC[C@]4(C)[C@H]3CC[C@]12C [7β-HC, Cholest-5-ene-3β,7β-diol]
- Lxrα activation, luciferase activity [1]: None of these compounds showed significant activity

SMILES: CC(CCC[C@@H](C)[C@H]1CC[C@H]2[C@@H]3C(=O)C=C4C[C@@H](O)CC[C@]4(C)[C@H]3CC[C@]12C)C(=O)O (stereo partly drawn) [3βH, 7O-CA, 3β-hydroxy-7-oxocholest-5-en-26-oic acid]
- Lxrα activation, luciferase activity [1]: have the ability to activate both Lxrs
- Lxrβ activation, luciferase activity [2]: have the ability to activate both Lxrs
- Islet-1 mRNA and protein level (qPCR, western blot) [3]: increase in the level of Islet-1 mRNA and protein
- abca1 mRNA expression in vivo [3]: enhanced expression of abca1
- Islet-GFP expression in cranial nerves ([3]; 48 hpf): increased Islet-GFP expression
- Number of Islet1+ cells in cranial nerves (III, IV, V, VII, X) ([3]; 48 hpf): no significant effect on the number of Islet1+ cells
- Islet-GFP levels after lxr morpholino (MO) injection ([3]; lxr MO vs control scrambled MO): abolished the in vivo increase in Islet-GFP levels
- Number of other midbrain neurons (TH+ dopamine, GABAergic, red nucleus) [4]: did not affect the number of other midbrain neurons
- Number of Islet1+ cells [4]: increased the number of Islet1+ oculomotor cells in the cultures
- Effect on Islet1+ cells with Lxr antagonist GGPP ([4]; wt cultures, GGPP 10 μM): blocked by the Lxr antagonist GGPP
- Number of active caspase-3+ cells ([4]; wt cultures, 10 μM 3β,7α-diHCA, 3βH,7O-CA, 25-HC, low concentrations of 3β,7β-diHCA, 3β-HCA): did not affect the number of active caspase-3+ cells

SMILES: CC(CO)CCC[C@@H](C)[C@H]1CC[C@H]2[C@@H]3[C@H](O)C=C4C[C@@H](O)CC[C@]4(C)[C@H]3CC[C@]12C (stereo partly drawn) [7α,26-diHC, cholest-5-ene-3β,7α,26-triol]
- Lxrα activation, luciferase activity [1]: none of which was found to show significant activity
- Lxrβ activation, luciferase activity [2]: none of which was found to show significant activity

SMILES: CC(C)CCC[C@@H](C)[C@H]1CC[C@H]2[C@@H]3[C@H](O)CC4=CC(=O)CC[C@]4(C)[C@H]3C[C@H](O)[C@]12C [7α,12α-diHCO, 7α,12α-Dihydroxycholest-4-en-3-one]
- Lxrα activation, luciferase activity [1]: None of these compounds showed significant activity

SMILES: CC(C)CCC[C@@H](C)[C@H]1CC[C@H]2[C@@H]3[C@H](O)C=C4C[C@@H](O)CC[C@]4(C)[C@H]3CC[C@]12C [7α-HC, Cholest-5-ene-3β,7α-diol]
- Lxrα activation, luciferase activity [1]: None of these compounds showed significant activity

SMILES: CC(C)CCC[C@@H](C)[C@H]1CC[C@H]2[C@@H]3C=CC4=CC(=O)CC[C@]4(C)[C@H]3CC[C@]12C [cholesta-4,6-dien-3-one]
- Lxrα activation, luciferase activity [1]: None of these compounds showed significant activity

SMILES: CC(C)CCC[C@@H](C)[C@H]1CC[C@H]2[C@@H]3CC[C@H]4CC(=O)CC[C@]4(C)[C@H]3CC[C@]12C [5α-cholestan-3-one]
- Lxrα activation, luciferase activity [1]: None of these compounds showed significant activity

- Lxrα activation, luciferase activity [1]: activate Lxr
- Lxrβ activation, luciferase activity [2]: activate Lxr
SMILES: CC(C)[C@@H](O)CC[C@@H](C)[C@H]1CC[C@H]2[C@@H]3CC=C4C[C@@H](O)CC[C@]4(C)[C@H]3CC[C@]12C [24S-HC, Cholest-5-ene-3β,24S-diol]

SMILES: CC(CO)CCC[C@@H](C)[C@H]1CC[C@H]2[C@@H]3[C@H](O)CC4=CC(=O)CC[C@]4(C)[C@H]3CC[C@]12C (stereo partly drawn) [7α,26-diHCO, 7α,26-dihydroxycholest-4-en-3-one]
- Lxrα activation, luciferase activity [1]: none of which was found to show significant activity
- Lxrβ activation, luciferase activity [2]: none of which was found to show significant activity

SMILES: CC(C)CCC[C@@H](C)[C@H]1CC[C@H]2[C@@H]3CCC4=CC(=O)CC[C@]4(C)[C@H]3CC[C@]12C [cholest-4-en-3-one]
- Lxrα activation, luciferase activity [1]: None of these compounds showed significant activity

SMILES: CC(CCC[C@@H](C)[C@H]1CC[C@H]2[C@@H]3[C@@H](O)CC4=CC(=O)CC[C@]4(C)[C@H]3CC[C@]12C)C(=O)O (stereo partly drawn) [7βH,3O-CA, 7β-hydroxy-3-oxocholest-4-en-26-oic acid]
- Lxrα activation, luciferase activity [1]: none of which was found to show significant activity
- Lxrβ activation, luciferase activity [2]: none of which was found to show significant activity

SMILES: CC(CCC[C@@H](C)[C@H]1CC[C@H]2[C@@H]3[C@H](O)CC4=CC(=O)CC[C@]4(C)[C@H]3CC[C@]12C)C(=O)O (stereo partly drawn) [7αH,3O-CA, 7α-hydroxy-3-oxocholest-4-en-26-oic acid]
- Lxrα activation, luciferase activity [1]: none of which was found to show significant activity
- Lxrβ activation, luciferase activity [2]: none of which was found to show significant activity
- abca1 mRNA expression in vivo [3]: not
- Islet-GFP expression in cranial nerves ([3]; 48 hpf): failed to regulate Islet-GFP expression

- Lxrα activation, luciferase activity [1]: no a significant effect
- Lxrβ activation, luciferase activity [2]: no a significant effect
SMILES: C[C@@H](CO)CCC[C@@H](C)[C@H]1CC[C@H]2[C@@H]3CC=C4C[C@@H](O)CC[C@]4(C)[C@H]3CC[C@]12C [26-HC, cholest-(25R)-5-ene-3β,26-diol]
- Number of Islet1+ cells [4]: no effect on the number of Islet1+ cells

SMILES: CC(C)CCC[C@@H](C)[C@H]1CC[C@H]2[C@@H]3[C@H](O)CC4=CC(=O)CC[C@]4(C)[C@H]3CC[C@]12C [7α-HCO, 7α-Hydroxycholest-4-en-3-one]
- Lxrα activation, luciferase activity [1]: None of these compounds showed significant activity

SMILES: CC(C)CCC[C@@H](C)[C@H]1CC[C@H]2[C@@H]3CC[C@H]4C[C@@H](O)CC[C@]4(C)[C@H]3CC[C@]12C [5α-cholestan-3β-ol]
- Lxrα activation, luciferase activity [1]: None of these compounds showed significant activity

SMILES: CC(C)CC[C@@H](O)[C@@H](C)[C@H]1CC[C@H]2[C@@H]3CC=C4C[C@@H](O)CC[C@]4(C)[C@H]3CC[C@]12C [22R-HC, 22R-hydroxycholesterol, reference compound]
- Lxr luciferase activity with the Lxr antagonist GGPP ([1]; metabolite 10 μM + GGPP 10 μM): similarly blocked
- Number of Islet1+ cells [4]: does not show an effect towards Islet1+ cells
